Measured values published in patent US20060040884A1, “Antisense oligonucleotides directed to genes regulated by trapoxin-induced HDAC inhibition” (priority 2001, published 2006).
Where “and” joins values, the source holds several entries; their conditions need not be identical. Identical values can stand only once. Marks after values point to notes of the source that are not given here. Square brackets hold non-standard residues; d marks the D form. Peptide text beside a SMILES is read from it. ξ: configuration not given here. Aoe(9ξ) = N[C@@H](CCCCCC(=O)C1CO1)C(=O)O; dPip = O=C(O)[C@H]1CCCCN1

Test system: H1299 cells
Assay: Microarray expression profiling of TPX- vs DMSO-treated H1299 cells (Affymetrix HU6800 and Incyte UniGem V arrays)
Type: cell-based, human
Conditions: 30 nM vs DMSO
Procedure: Cell Culture and Drug Treatments. […] H1299 cells at 60 to 80% confluence are treated with 30 nM TPX dissolved in dimethyl sulphoxide for a final concentration of 0.1% Me2SO in cell culture medium or 0.1% Me2SO for 0, 6, 12, and 18 h.
Incyte cDNA arrays. H1299 cells are treated with 30 nM TPX dissolved in Me2SO or Me2SO for 0, 6, 12 and 18 h. Final Me2SO concentrations were 0.1% in cell culture medium. Total RNA is extracted using TRIZOL reagent (Life Technologies, Rockville, Md.) and purified using RNAeasy reagents (Qiagen, Valencia Calif.). Poly (A)^+ RNA (mRNA) is prepared from total RNA using Oligotex columns (Qiagen, Valencia, Calif.) and the procedure is repeated twice to minimize contamination with ribosomal RNA. The mRNA concentrations are determined using RiboGreen RNA Quantitation kit (Molecular Probes, Eugene, Oreg.) and equal amounts of mRNA from each sample is used in labeling reactions that are performed by Synteni Division of Incyte Genomics, Inc. (Palo Alto, Calif.). Complementary DNAs are prepared by […] and labeled with Cy3-deoxyuridine triphosphate (Cy3) or Cy5-deoxyuridine triphosphate (Cy5) fluorescent nucleotides. cDNA samples from cells that are treated with Me2SO are labeled with Cy3 and the TPX-treated samples are labeled with Cy5. Replicates were labeled with reversed fluorescent labels to accommodate biases attributable to labeling. The Cy3 and Cy5 samples from each time point are combined and hybridized to UniGem […] arrays (Iyer, V. R., et al., (1999) Science 283, 83-87). This array contains cDNAs that represent approximately 7000 human genes.
Affymetrix oligonucleotide arrays. Total RNA and Poly (A)^+ RNA is isolated from TPX or Me2SO-treated H1299 cells essentially as it was for Incyte cDNA arrays. Total RNA is isolated from p21^waf1-10 cells that are grown in the presence or in the absence of tetracycline for 6, 12 and 48 h. 1st strand cDNA synthesis is performed using Superscript Choice System (Life Technologies) and a T7prFB-t30 primer, 5′-AAACGACGGCACA […]-t30-3′ (SEQ ID NO 1). Biotinylated complementary […] is made using the T7 Megascript system (Ambion, Austin, Tex.), substituting NTP labeling-mix containing biotinylated CTP and UTP. The labeled, purified cDNA is fragmented into <50 bp pieces at 95° C. in MgCl2 buffer to-increase the efficiency of hybridization to 20-mer oligos on the arrays. These labeled fragments are hybridized to HU6800 arrays (Affymetrix, Santa Clara, Calif.) as described previously (Lockhart, D. J., et al., (1996) Nat. Biotechnol. 14, 1675-1680; Alon, U. et al., (1999) Proc. Natl. Acad. Sci. U.S.A. 96, 6745-6750). This array represents approximately 7000 human genes. Briefly, samples are hybridized for 16 h at 45° C. with constant rotation at 60 rpm. The arrays are washed and stained using an Affymetrix fluidics station. The stain included streptavidin-phycoerythrin (10 μg/ml; Molecular Probes, Eugene, Oreg.) and biotinylated goat anti-streptavidin (3 μg/ml; Vector Laboratories, Burlingame, Calif.).
Imaging and Data Analysis. Affymetrix arrays are scanned with a HP argon-ion laser confocal microscope, with a 488 nm […] and detection at 570 nm. Affymetrix fold changes are calculated using GeneChip 3.3 software (Affymetrix). Incyte Pharmaceutical Inc. uses a laser confocal microscope to determine the fluorescence intensities from Incyte cDNA arrays. The fluorescent images (Cy3 and Cy5) from the Incyte cDNA arrays are normalized to total fluorescence from each channel for all genes for labeling efficiency differences and considered the normalized data is used for calculation of the gene expression ratios.

With `O=C(CCCCC[C@@H]1NC(=O)[C@H]2CCCCN2C(=O)[C@H](Cc2ccccc2)NC(=O)[C@H](Cc2ccccc2)NC1=O)C1CO1` (stereo partly drawn) [TPX, Trapoxin A] (cyclo(FF[dPip][Aoe(9ξ)])) the “Fold change, AB011146 KIAA0574, similar to an RNA binding protein” value (6 h) was “NC (<2 fold change in expression level (NC))”, the “Fold change, AF012086 RAN-binding protein 2-like” value (6 h) was “NC (<2 fold change in expression level (NC))” and the “Fold change, AF052578 RAN [RNA processing]” value (6 h) was “NC (<2 fold change in expression level (NC))”. The “Fold change, AF052578 RAN [Small GTP-ases]” value (6 h) was “NC (<2 fold change in expression level (NC))”, the “Fold change, AF109161 p35srj [Stress]” value (6 h) was “NC (<2 fold change in expression level (NC))” and the “Fold change, AF109161 p35srj [Transformation and TKRs]” value (6 h) was “NC (<2 fold change in expression level (NC))”. For the same molecule, the “Fold change, AL047358 Insulin-induced gene 1” value (6 h) was 2.2 fold and 2.8 fold, the “Fold change, AL047358 Spermidine/spermine N1-acetyltransferase” value (6 h) was “NC (<2 fold change in expression level (NC))” and the “Fold change, AL720570 Hepatoma-derived growth factor” value (6 h) was “NC (<2 fold change in expression level (NC))”. For the same molecule, the “Fold change, D00596 Thymidylate synthetase” value (6 h) was “NC (<2 fold change in expression level (NC))”, the “Fold change, D16105 Leukocyte receptor tyrosine kinase” value (6 h) was “NC (<2 fold change in expression level (NC))” and the “Fold change, D50920 KIAA0130, thyroid receptor interacting protein” value (6 h) was “NC (<2 fold change in expression level (NC))”. The “Fold change, D85429 Hsp 40” value (6 h) was 4.0^8 fold and 3.9^8 fold, the “Fold change, J03909 γ-IFN-inducible, IP-30” value (6 h) was 3.9^5 fold and 3.9^2 fold and the “Fold change, L03840 Fibroblast growth factor receptor” value (6 h) was 2.4* fold and 2.7* fold. For the same molecule, the “Fold change, L16991 Thymidylate kinase” value (6 h) was “NC (<2 fold change in expression level (NC))”, the “Fold change, L20010 Host cell factor” value (6 h) was “NC (<2 fold change in expression level (NC))” and the “Fold change, L32976 Mixed lineage kinase-3” value (6 h) was “NC (<2 fold change in expression level (NC))”. For the same molecule, the “Fold change, M12174 RhoB” value (6 h) was 6.2^5 fold and 9.0^8 fold, the “Fold change, M55153 Transglutaminase 2” value (6 h) was “NC (<2 fold change in expression level (NC))” and the “Fold change, M58286 TNF Receptor” value (6 h) was “NC (<2 fold change in expression level (NC))”. The “Fold change, M59828 Hsp 70” value (6 h) was 3.5 fold and 4.1 fold, the “Fold change, M76125 Tyrosine kinase receptor (TKR) axl” value (6 h) was “NC (<2 fold change in expression level (NC))” and the “Fold change, M80244 Human E16” value (6 h) was “NC (<2 fold change in expression level (NC))”. The “Fold change, M80899 AHNAK nucleoprotein/desmoykin” value (6 h) was “NC (<2 fold change in expression level (NC))”, the “Fold change, M86406 Actinin” value (6 h) was “NC (<2 fold change in expression level (NC))” and the “Fold change, N33982 c-Yes-associated protein” value (6 h) was “NC (<2 fold change in expression level (NC))”. The “Fold change, NM006603 Stromal antigen 2” value (6 h) was “NC (<2 fold change in expression level (NC))”, the “Fold change, U03057 Actin-bundling protein” value (6 h) was “NC (<2 fold change in expression level (NC))” and the “Fold change, U09578 MAKAP kinase (3 pk)” value (6 h) was “NC (<2 fold change in expression level (NC))”. The “Fold change, U09579 p21waf1 (1st line)” value (6 h) was 6.1* fold and 6.6* fold, the “Fold change, U09579 p21waf1 (2nd line)” value (6 h) was 2.3 fold and 3.3 fold and the “Fold change, U09937 Upa receptor (UpaR) (1st line)” value (6 h) was “NC (<2 fold change in expression level (NC))”. The “Fold change, U14750 Connective tissue growth factor” value (6 h) was 3.1 fold and 3.6 fold, the “Fold change, U15782 Cleavage stimulation factor 3” value (6 h) was “NC (<2 fold change in expression level (NC))” and the “Fold change, U25804 Caspase-4” value (6 h) was “NC (<2 fold change in expression level (NC))”. For the same molecule, the “Fold change, U28749 HMGI-C (2nd line)” value (6 h) was “NC (<2 fold change in expression level (NC))”, the “Fold change, U28749 High mobility group phosphoprotein I-C (HMGI-C) (1st line)” value (6 h) was “NC (<2 fold change in expression level (NC))” and the “Fold change, U32519 GAP SH3 binding protein” value (6 h) was 5.7^8 fold and 5.8^8 fold. For the same molecule, the “Fold change, U35113 Metastasis-associated 1, MTA-1 [Metastasis and invasion]” value (6 h) was “NC (<2 fold change in expression level (NC))”, the “Fold change, U35113 Metastasis-associated protein 1 (MTA-1) [Chromatin remodeling]” value (6 h) was “NC (<2 fold change in expression level (NC))” and the “Fold change, U48795 Cathelicidin antimicrobial peptide” value (6 h) was “NC (<2 fold change in expression level (NC))”. For the same molecule, the “Fold change, U56833 VBP-1” value (6 h) was “NC (<2 fold change in expression level (NC))”, the “Fold change, U77413 O-linked-N-acetylglucosamine transferase” value (6 h) was “NC (<2 fold change in expression level (NC))” and the “Fold change, U84214 Defender against cell death 1” value (6 h) was “NC (<2 fold change in expression level (NC))”. The “Fold change, X03473 Histone H1 (0) [Chromatin remodeling]” value (6 h) was 6.8^4 fold and 10.8^8 fold, the “Fold change, X03473 Histone H1 (0) [Differentiation]” value (6 h) was 6.8^4 fold and 10.8^8 fold and the “Fold change, X04429 Plasminogen activator inhibitor 1” value (6 h) was “NC (<2 fold change in expression level (NC))”. For the same molecule, the “Fold change, X16396 NAD-dependent methylene teterahydrofolate dehydrogenase-methylenyltetrahydrofolate cyclohydrolase” value (6 h) was “NC (<2 fold change in expression level (NC))”, the “Fold change, X16665 Homeobox B2 (Hoxb2)” value (6 h) was “NC (<2 fold change in expression level (NC))” and the “Fold change, X37546 Inhibitor of apoptisis homolog B” value (6 h) was “NC (<2 fold change in expression level (NC))”. The “Fold change, X53586 Integrin α-6” value (6 h) was “NC (<2 fold change in expression level (NC))”, the “Fold change, X55740 5′-nucleotidase” value (6 h) was “NC (<2 fold change in expression level (NC))” and the “Fold change, X59798 Cyclin D1” value (6 h) was “NC (<2 fold change in expression level (NC))”. The “Fold change, X66029 TKR axl” value (6 h) was “NC (<2 fold change in expression level (NC))”, the “Fold change, X71874 MECL-1” value (6 h) was “NC (<2 fold change in expression level (NC))” and the “Fold change, X78687 G9 sialidase” value (6 h) was 3.0^8 fold and 3.4^8 fold. The “Fold change, X89713 Death-associated protein-5” value (6 h) was “NC (<2 fold change in expression level (NC))”, the “Fold change, A1581499 Apoptosis inhibitor 2” value (12 h) was “NC (<2 fold change in expression level (NC))” and the “Fold change, AB011146 KIAA0574, similar to an RNA binding protein” value (12 h) was 2.7 fold. For the same molecule, the “Fold change, AF012086 RAN-binding protein 2-like” value (12 h) was 9.1 fold and 8.3 fold, the “Fold change, AF052578 RAN [RNA processing]” value (12 h) was “NC (<2 fold change in expression level (NC))” and the “Fold change, AF052578 RAN [Small GTP-ases]” value (12 h) was 2.9 fold and 2.0 fold. For the same molecule, the “Fold change, AF109161 p35srj [Stress]” value (12 h) was 3.5 fold and 2.4 fold, the “Fold change, AF109161 p35srj [Transformation and TKRs]” value (12 h) was 3.5 fold and 2.4 fold and the “Fold change, AL047358 Insulin-induced gene 1” value (12 h) was 7.9 fold and 6.4 fold. For the same molecule, the “Fold change, AL047358 Spermidine/spermine N1-acetyltransferase” value (12 h) was 3.8 fold and 2.3 fold, the “Fold change, AL720570 Hepatoma-derived growth factor” value (12 h) was “NC (<2 fold change in expression level (NC))” and the “Fold change, AW072424 5′-nucleotidase” value (12 h) was −3.7 fold. For the same molecule, the “Fold change, D00596 Thymidylate synthetase” value (12 h) was “NC (<2 fold change in expression level (NC))”, the “Fold change, D16105 Leukocyte receptor tyrosine kinase” value (12 h) was “NC (<2 fold change in expression level (NC))” and the “Fold change, D50920 KIAA0130, thyroid receptor interacting protein” value (12 h) was “NC (<2 fold change in expression level (NC))”.
